Test results as given in paper PMC3352927, “Development and Validation of an Automated High-Throughput System for Zebrafish In Vivo Screenings” (PLoS ONE, 2012).
“Also recorded” adds a separate entry of the source. Counter-ions that a name gives are not always drawn. Like-named read-outs stand apart in the source and are kept apart here.

What was measured:
48 hpf zebrafish embryos = conditions: for Cardiotoxic effect in zebrafish: blind screened between 1 and 200 µM, predominant effect
Description: The image analysis program for the Cardiotoxicity assay was based on the processing of the videos to obtain a periodic signal of the cardiac motion automatically and independent to the embryo position.
The detection of the heart beat frequency was based on the frequency spectrum analysis of the Euclidean Distance (ED) signal (built as the ED between the frames of the video referred to a reference frame calculated with the mean values of intensity for homogeneous zones). Obtaining the periodogram using the Discrete Fourier Transform (DFT), and modifying it to avoid undesired effects, the heart beat frequency was given by its first significant frequency (Figure 3 A).
For embryos with arrhythmia (A), the sinusoidal course of the ED signal was disrupted due to the irregular beating of the heart, i.e. the different beating frequency of each chamber. The classification of the arrhythmia cases was therefore based on the number of significant frequencies detected in the DFT of the ED signal (Figure 3 B).
Embryos at 48 hpf were automatically dispensed in a 96 well plate discarding exterior columns and rows and volume was leveled to 50µl with E3. Compounds were prepared 200 times concentrated in DMSO. A 1∶100 dilution was automatically made from the stock and 50 µl were added to each embryo to reach the final concentration. […] Embryos that moved during video recording were discarded. […] One video per embryo from a minimum of 10 embryos in each treated group were necessary for statistical analysis.

humans = conditions: known effects in humans; cited from earlier work
zebrafish embryos [1] = experiment: Automated angiogenesis assay (ISV formation), Flk1:copGFP embryos treated at 22-26 hpf, read at 48 hpf; format: in vivo; conditions: for IC50: manually quantified; for Angiog. inhibition: presence or absence of an anti-angiogenic effect, 0.01-100 µM; for Anti-angiogenic phenotype (ISVs / DLAV): treated at 24 hpf, checked at 48 hpf; for Efective concentration (minimum concentration that showed an effect): given when IC50 could not be calculated
Description: In the angiogenesis assay, the fluorescent images taken were processed using AxioVision 4.6.3 and a macro was developed to quantify an indirect measure of the area of the ISVs. […] However, we usually include a manual counting to offer a more detailed measurement of effect.
In the automatic analysis of angiogenesis, it is first necessary to perform a sequence of automated filtering functions on the image to extract information, define the region of interest (ROI), that in this case is the part of the tail containing the ISVs, and allow the measurement of the embryo length. Recovering a previous image, new filtering functions are applied to the ROI. A gradient image containing the ISVs, the DLAV (Dorsal Longitudinal Anastomotic Vessel), the PCV and the DA is created. Next, fluorescent areas that should not be quantified are discarded. Finally, only the areas comprised between the ISVs, the DLAV and the PCV or the DA are measured (Figure 4). In that way, when the vessels are incomplete or the DLAV is not present, an enclosed area is not present and therefore not measured.
The means obtained from the treated embryos were compared with the control mean. When statistically significant differences were detected a deeper analysis was done manually. In this case the parameters quantified were:
• The total number of ISVs present in the trunk of the embryos (from where the largest bulge of the yolk ends to the end of the tail). • Number of complete ISVs (reached the dorsal part of the embryo and formed the DLAV).
A curve of six concentrations (0.01, 0.1, 1, 10, 30 and 100 µM) was performed for all of them. […] IC50 was calculated when a clear dose-dependent anti-angiogenesis effect was detected. Otherwise, the minimum dose at which the inhibition of angiogenesis was observed is shown (Table 4).
At this time, chorions were removed with protease from Streptomyces griseus (Sigma-Aldrich) (1.5 mg/ml for 6 minutes) and the embryos were sorted and dispensed 1 per well in a 96 well assay plate. Each experimental condition was tested in a row with ten embryos. Embryos were dispensed in an average final volume of 90 µl of E3 media. 90 µl of the test items (DMSO and positive control KRN633 included) previously diluted 100 times were dispensed into each well of the assay plate containing the embryos to get the final volume of 180 µl and the desired final concentration.
The microscope scanned the wells by columns and a bright field image and a fluorescent image (2.5×magnification) were acquired per well. Then, the image analysis was performed and the result file generated.
Statistical analysis and graphical representation of the data were performed using SSPS (Statistical Package for the Social Sciences) software and Prism (Graph Pad Software) for IC50 calculations (non linear regression, sigmoidal dose-response with variable slope). […] In the angiogenesis assay, for comparisons between two groups, two-tailed t-test was used assuming unequal variances. For comparisons between more than two groups one-way analysis of variance followed by Dunnett’s post-test was applied to compare each data point with vehicle control.

zebrafish embryos [2] = experiment: Embryo analysis at 72 hpf (blood circulation and ISVs development); format: in vivo; conditions: for Blood circulation / ISVs appearance: 72 hpf
Description: Embryos from the Flk1:copGFP line were treated with the indicated compounds at 22–23 hpf in 500 µl of E3 in p24 well plates (5 embryos per well). After 48 hours of treatment embryos were anesthetized with 10 µl Tricaine (final concentration 0.02%) and analyzed for the presence of blood circulation and ISVs development using a Leica M205 FA stereoscope equipped with a Hamamatsu C10600 camera.

[3] = Danio rerio, read-out: IC50 C.V. (complete number of vessels)
[4] = Danio rerio, read-out: IC50 T.V. (total number of vessels)
[5] = read-out: IC50 C.V. (complete number of vessels)
[6] = read-out: IC50 T.V. (total number of vessels)

In the case of `CCS(=O)(=O)N(C)[C@H]1c2cc(C#N)ccc2OC(C)(C)[C@@H]1O` (racemic) [Chromanol 293b], the “Cardiotoxic effect in zebrafish” value (48 hpf zebrafish embryos) is listed as “No effect” and the “Cardiac effect in humans” value (humans) is listed as “QT-prolong”.
With `COc1cc2c(cc1O)CC[C@@H]1[C@@H]2CC[C@]2(C)[C@@H](O)CC[C@@H]12` [2-Methoxyestradiol] the IC50 (zebrafish embryos [1]; [3]) was 10.2 µM, the IC50 (zebrafish embryos [1]; [4]) was 30.6 µM and the Angiog. inhibition (zebrafish embryos [1]) was “Yes”. For the same compound, the “Anti-angiogenic phenotype (ISVs / DLAV)” value (zebrafish embryos [1]) was “the formation of ISVs was perturbed with defective or total absence of sprouting”.
With `Cc1cn[nH]c1.Cl` [4-Methylpyrazole hydrochloride] the Angiog. inhibition (zebrafish embryos [1]) was “No”.
For `COc1cc2ncnc(Nc3cccc(Cl)c3)c2cc1OC` [AG1478], the IC50 (zebrafish embryos [1]; [5]) was 13 µM, the IC50 (zebrafish embryos [1]; [6]) was 22.8 µM and the Angiog. inhibition (zebrafish embryos [1]) was “Yes”. The “Anti-angiogenic phenotype (ISVs / DLAV)” value (zebrafish embryos [1]) was “the formation of ISVs was perturbed with defective or total absence of sprouting; also recorded: lower number of incomplete ISVs”.
With `COc1cc2ncc(-c3ccccc3)nc2cc1OC` [AG-1296] the “Efective concentration (minimum concentration that showed an effect)” value (“Efective concentration” for short) (zebrafish embryos [1]) was 20 µM, the Angiog. inhibition (zebrafish embryos [1]) was “Yes” and the “Anti-angiogenic phenotype (ISVs / DLAV)” value (zebrafish embryos [1]) was “moderate effect that did not increase with higher doses”. The “Anti-angiogenic phenotype (ISVs / DLAV)” value (zebrafish embryos [1]; listed as AG1296) was “inhibit proper development of the DLAV; also recorded: thinner ISVs rather than incomplete vessel formation”, the Blood circulation (zebrafish embryos [2]) was “impaired blood circulation” and the ISVs appearance (zebrafish embryos [2]) was “thinner ISVs that were disrupted in some cases”.
In the case of `CC(N)=O` [Acetamide], the Angiog. inhibition (zebrafish embryos [1]) is reported as “No”.
With `CCCCc1oc2ccccc2c1C(=O)c1cc(I)c(OCCN(CC)CC)c(I)c1` [Amiodarone hydrochloride] the Angiog. inhibition (zebrafish embryos [1]) was “No”.
In the case of `CCCCc1oc2ccccc2c1C(=O)c1cc(I)c(OCCN(CC)CC)c(I)c1` [Amiodarone], the “Cardiac effect in humans” value (humans) is listed as “QT-prolong”.
In the case of `COc1ccc(CCN2CCC(Nc3nc4ccccc4n3Cc3ccc(F)cc3)CC2)cc1` [Astemizole], the “Cardiac effect in humans” value (humans) is listed as “QT-prolong”.
In the case of `CC(C)C[C@H](NC(=O)[C@@H](O)[C@H](N)Cc1ccccc1)C(=O)O` [Bestatin], the Angiog. inhibition (zebrafish embryos [1]) is reported as “No”.
For `COc1cc(Nc2c(C#N)cnc3cc(OCCCN4CCN(C)CC4)c(OC)cc23)c(Cl)cc1Cl` [Bosutinib], the “Efective concentration” value (zebrafish embryos [1]) was 50 µM, the Angiog. inhibition (zebrafish embryos [1]) was “Yes” and the “Anti-angiogenic phenotype (ISVs / DLAV)” value (zebrafish embryos [1]) was “moderate effect that did not increase with higher doses”. For the same compound, the Blood circulation (zebrafish embryos [2]) was “impaired blood circulation” and the ISVs appearance (zebrafish embryos [2]) was “thinner ISVs that were disrupted in some cases”.
In the case of `COc1cc(N)c(Cl)cc1C(=O)NC1CCN(CCCOc2ccc(F)cc2)CC1OC` (centres unmarked) [Cisapride], the “Cardiac effect in humans” value (humans) is given as “QT-prolong”.
In the case of `C[C@H]1O[C@@H](O[C@H]2[C@@H](O)C[C@H](O[C@H]3[C@@H](O)C[C@H](O[C@H]4CC[C@@]5(C)[C@H](CC[C@@H]6[C@@H]5CC[C@]5(C)[C@@H](C7=CC(=O)OC7)CC[C@]65O)C4)O[C@@H]3C)O[C@@H]2C)C[C@H](O)[C@@H]1O` [Digitoxin], the Predominant observed effect (48 hpf zebrafish embryos; 48 hpf zebrafish embryos, 5 µM) is reported as “N” and the “Cardiotoxic effect in zebrafish” value (48 hpf zebrafish embryos) is reported as “Cardiac arrest”.
For `COc1cccc2c1C(=O)c1c(O)c3c(c(O)c1C2=O)C[C@@](O)(C(=O)CO)C[C@@H]3O[C@H]1C[C@H](N)[C@H](O)[C@H](C)O1` [Doxorrubicin], the “Cardiac effect in humans” value (humans) is listed as “No effect”.
For `CC(C)C[C@H](NC(=O)[C@H]1O[C@@H]1C(=O)O)C(=O)NCCCCN=C(N)N` [E64], the Angiog. inhibition (zebrafish embryos [1]) was “No”.
In the case of `CNCCC(Oc1ccc(C(F)(F)F)cc1)c1ccccc1` (centres unmarked) [Fluoxetine], the “Cardiac effect in humans” value (humans) is listed as “Arrhythmia”.
For `O=C(O)P(=O)(O)O` [Foscarnet], the “Cardiotoxic effect in zebrafish” value (48 hpf zebrafish embryos) is listed as “Bradycardia” and the “Cardiac effect in humans” value (humans) is listed as “Bradycardia”.
With `CO[C@@H]1[C@H](OC(=O)/C=C/C=C/C=C/C=C/C(=O)O)CC[C@]2(CO2)[C@H]1[C@@]1(C)O[C@@H]1CC=C(C)C` [Fumagillin] the Angiog. inhibition (zebrafish embryos [1]) was “not detected and No”.
In the case of `COC(=O)c1ccc(O)c(NC(=O)COc2ccc(C34CC5CC(CC(C5)C3)C4)cc2)c1` [HIF-1 Inhibitor], the Angiog. inhibition (zebrafish embryos [1]) is reported as “No” and the Angiog. inhibition (zebrafish embryos [1]; listed as Hif-1 inhibitor) is reported as “not detected”.
For `O=C1Nc2ccccc2/C1=C1/Nc2ccccc2/C1=N\O` [Indirubin-3̀-oxime], the IC50 (zebrafish embryos [1]; [5]) was 4.2 µM, the IC50 (zebrafish embryos [1]; [6]) was 18.3 µM and the Angiog. inhibition (zebrafish embryos [1]) was “Yes”. For the same compound, the “Anti-angiogenic phenotype (ISVs / DLAV)” value (zebrafish embryos [1]) was “the formation of ISVs was perturbed with defective or total absence of sprouting”.
In the case of `CCCNC(=O)Nc1ccc(Oc2ncnc3cc(OC)c(OC)cc23)cc1Cl` [KRN633], the IC50 (zebrafish embryos [1]; [3]) is reported as 0.026 µM, the IC50 (zebrafish embryos [1]; [4]) is reported as 0.035 µM and the Angiog. inhibition (zebrafish embryos [1]) is reported as “Yes”. The “Anti-angiogenic phenotype (ISVs / DLAV)” value (zebrafish embryos [1]) was “the formation of ISVs was perturbed with defective or total absence of sprouting”.
In the case of `O=C(c1ccc(F)cc1)C1CCN(CCn2c(=O)[nH]c3ccccc3c2=O)CC1` [Ketanserin], the “Cardiac effect in humans” value (humans) is listed as “Bradycardia”.
In the case of `CS(=O)(=O)CCNCc1ccc(-c2ccc3ncnc(Nc4ccc(OCc5cccc(F)c5)c(Cl)c4)c3c2)o1` [Lapatinib], the “Cardiac effect in humans” value (humans) is listed as “No effect”.
For `CCN(CC)CC(=O)Nc1c(C)cccc1C` [Lidocaine], the “Cardiac effect in humans” value (humans) is given as “Bradycardia”.
For `CC(=O)N[C@@H](CS)C(=O)O` [N-Acetyl-L-cysteine], the Angiog. inhibition (zebrafish embryos [1]) was “No”.
For `CS(=O)(=O)Nc1ccc([N+](=O)[O-])cc1OC1CCCCC1` [NS-398], the “Efective concentration” value (zebrafish embryos [1]) was 30 µM, the Angiog. inhibition (zebrafish embryos [1]) was “Yes” and the “Anti-angiogenic phenotype (ISVs / DLAV)” value (zebrafish embryos [1]) was “moderate effect that did not increase with higher doses”. For the same compound, the Lethality (zebrafish embryos [2]; treatment to 72 hpf at the 48 hpf doses which inhibited angiogenesis) was “lethal”.
With `Cn1c(=O)n(-c2ccc(C(C)(C)C#N)cc2)c2c3cc(-c4cnc5ccccc5c4)ccc3ncc21` [NVP-BEZ235] the “Efective concentration” value (zebrafish embryos [1]) was 10 µM, the Angiog. inhibition (zebrafish embryos [1]) was “Yes” and the “Anti-angiogenic phenotype (ISVs / DLAV)” value (zebrafish embryos [1]) was “moderate effect that did not increase with higher doses”. The Blood circulation (zebrafish embryos [2]) was “impaired blood circulation” and the ISVs appearance (zebrafish embryos [2]) was “thinner ISVs that were disrupted in some cases”.
In the case of `CN1CCC[C@H]1c1cccnc1` [Nicotine], the “Cardiotoxic effect in zebrafish” value (48 hpf zebrafish embryos) is listed as “Bradycardia” and the “Cardiac effect in humans” value (humans) is listed as “Bradycardia”.
In the case of `CCOC(=O)C1=C(C)NC(C)=C(C(=O)OC)C1c1cccc([N+](=O)[O-])c1` (centres unmarked) [Nitrendipine], the “Cardiac effect in humans” value (humans) is listed as “Cardiac arrest”.
For `Nc1nc(OCc2ccccc2)c2nc[nH]c2n1` [O6-benzylguanine], the Angiog. inhibition (zebrafish embryos [1]) was “No”.
For `COc1cc(OC)cc(-c2cc3cnc(N)nc3nc2NC(=O)NC(C)(C)C)c1` [PD166866], the IC50 (zebrafish embryos [1]; [5]) was 16 µM, the IC50 (zebrafish embryos [1]; [6]) was 43.9 µM and the Angiog. inhibition (zebrafish embryos [1]) was “Yes”. For the same compound, the “Anti-angiogenic phenotype (ISVs / DLAV)” value (zebrafish embryos [1]) was “the formation of ISVs was perturbed with defective or total absence of sprouting; also recorded: strong angiogenesis inhibition”.
With `COc1cc2nccc(Oc3ccc(NC(=S)NC(=O)c4ccccc4C)cc3)c2cc1OC` [PDGFR tyr kin inhibitor V] the IC50 (zebrafish embryos [1]; [5]) was 0.14 µM, the IC50 (zebrafish embryos [1]; [6]) was 0.19 µM and the Angiog. inhibition (zebrafish embryos [1]) was “Yes”. The “Anti-angiogenic phenotype (ISVs / DLAV)” value (zebrafish embryos [1]; listed as PDGFR tyrosine kinase inhibitor) was “the formation of ISVs was perturbed with defective or total absence of sprouting” and the “Anti-angiogenic phenotype (ISVs / DLAV)” value (zebrafish embryos [1]; listed as PDGFR tyrosine kinase inhibitor V) was “strong angiogenesis inhibition”.
For `CC[C@@H]1C(=O)OC[C@@H]1Cc1cncn1C` [Pilocarpine], the “Cardiac effect in humans” value (humans) is listed as “No effect”.
In the case of `O=c1[nH]c2ccccc2n1C1CCN(CCCC(c2ccc(F)cc2)c2ccc(F)cc2)CC1` [Pimozide], the “Cardiac effect in humans” value (humans) is listed as “QT-prolong”.
For `Cc1nc2n(c(=O)c1CCN1CCC(c3noc4cc(F)ccc34)CC1)CCCC2` [Risperidone], the “Cardiac effect in humans” value (humans) is given as “QT-prolong”.
For `N#Cc1cc2c(OCC(O)CN3CCN(C(c4ccccc4)c4ccccc4)CC3)cccc2[nH]1` (centres unmarked) [SDZ-201106], the “Cardiotoxic effect in zebrafish” value (48 hpf zebrafish embryos) is given as 2∶1 arrhythmia and type 2∶1 arrhythmias and Arrhythmia 2∶1 and the “Cardiac effect in humans” value (humans) is given as “QT-prolong”.
For `O=C1NCCN1CCN1CCC(c2cn(-c3ccc(F)cc3)c3ccc(Cl)cc23)CC1` [Sertindol], the “Cardiac effect in humans” value (humans) is listed as “QT-prolong”.
With `CC(C)(C)c1ccc(C(O)CCCN2CCC(C(O)(c3ccccc3)c3ccccc3)CC2)cc1` (centres unmarked) [Terfenadine] the “Concentration at which detected as potential QT-prolongation inducer” value (48 hpf zebrafish embryos; tested at 0.1, 1, 5, 10, 20 and 50 µM) was 5 µM.
In the case of `CC(CC(c1ccccc1)c1ccccc1)NC(C)(C)C` (centres unmarked) [Terodiline], the “Cardiotoxic effect in zebrafish” value (48 hpf zebrafish embryos) is listed as “Arrhythmia 2∶1” and the “Cardiac effect in humans” value (humans) is listed as “QT-prolong”.
In the case of `C[C@]12CC[C@H]3[C@@H](CCC4=CC(=O)CC[C@@]43C)[C@@H]1CC[C@@H]2O` [Testosterone], the “Cardiotoxic effect in zebrafish” value (48 hpf zebrafish embryos) is listed as “Bradycardia” and the “Cardiac effect in humans” value (humans) is listed as “Bradycardia”.
With `COc1ccc2cc(-c3nc(-c4ccc([S+](C)[O-])cc4)[nH]c3-c3ccncc3)ccc2c1` (centres unmarked) [Tie2 Kinase inhibitor] the Angiog. inhibition (zebrafish embryos [1]) was “No” and the Angiog. inhibition (zebrafish embryos [1]; listed as Tie-2 kinase inhibitor) was “not detected”.
In the case of `CC(C)(C)NC[C@H](O)COc1nsnc1N1CCOCC1` [Timolol], the “Cardiac effect in humans” value (humans) is listed as “Bradycardia”.
With `N#C/C(=C\c1ccc(O)c(O)c1)C(=O)NCc1ccccc1` [Tyrphostin AG490] the Angiog. inhibition (zebrafish embryos [1]) was “No”.
With `COc1cc2c(Nc3ccc(Br)cc3F)ncnc2cc1OCC1CCN(C)CC1` [ZD6474 (Vandetanib), Vandetanib] the “Efective concentration” value (zebrafish embryos [1]) was 100 µM, the Angiog. inhibition (zebrafish embryos [1]) was “Yes” and the “Anti-angiogenic phenotype (ISVs / DLAV)” value (zebrafish embryos [1]) was “the formation of ISVs was perturbed with defective or total absence of sprouting”.
In the case of `O=C1Cc2cc(CCN3CCN(c4nsc5ccccc45)CC3)c(Cl)cc2N1` [Ziprasidone], the “Cardiac effect in humans” value (humans) is listed as “QT-prolong”.
In the case of `N.N.[Cl][Pt][Cl]` [cis-Diammineplatinum(II) dichloride], the Angiog. inhibition (zebrafish embryos [1]) is reported as “No”.
